Assay results published in paper PMC5583328, “Probing the potential of mucus permeability to signify preterm birth risk” (Scientific Reports, 2017).
Where a SMILES comes first, the peptide text is derived from it. The star is where a group is joined. 6FAM = O=C1OC2(c3ccc(O)cc3Oc3cc(O)ccc32)c2cc(C(=O)*)ccc21

Assay: Microfluidic peptide partitioning and transport through cervical mucus
Assay type: in vitro ADME, human
Details: for average maximum concentration of peptide accumulated inside mucus (enrichment at mucus-buffer interface): 15-min experiment; for average maximum concentration of peptide accumulated inside mucus (enrichment at mucus-buffer interface) / concentration of the peptide at the end of the channel (450 μm): mean (SD)
Method: We quantified partitioning and transport of the reporter peptides through mucus using a previously described microfluidics device, [38]. With this setup, a continuous aqueous flow of fluorescent peptides is generated within a micron-scale channel at carefully controlled rates adjacent to a stable mucus layer. The small sample volume (5 μL) required for this system is ideally suited for the study of native mucus samples, which are typically not available in large volumes. The peptide solutes partition into the mucus layer, and their subsequent transport is monitored with fluorescence microscopy (Fig. 3a and b).
We quantified the transport of (+) and (−) charged peptides in mucus from 20 ovulating, 15 low-risk pregnant, and 9 high-risk pregnant patients (Table 2; see the table caption for specific information on cohort composition). […] Peptides at a concentration of 4 μM were introduced into the microfluidic channel in the presence of the mucus sample or in the presence of buffer. […] Concentration profiles of the fluorescent peptides were acquired through the center cross - section of the mucus channel (Fig. 3a,b, Methods).
Peptides were synthesized, purified, and identified by the Swanson Biotechnology Center at the Koch Institute at MIT (Cambridge, MA, USA). […] Peptides were purified using reverse-phase high performance liquid chromatography. […] Before use in the microfluidic device, peptides were dissolved in H7 buffer (20 mM HEPES, 20 mM NaCl, pH 7) at a final concentration of 4 μM.
Microfluidic polydimethylsiloxane devices were designed and fabricated as previously described, [38], and cured at 95 °C for 48–72 h prior to use. Devices bonded to microscope slides were mounted on an inverted epifluorescence microscope (IX-71, Olympus American, Central Valley, PA; or Zeiss Observer Z1) equipped with a 5x or 10x objective and LED light source or mercury lamp (excitation at 450–495 nm or 475 nm, respectively). All channels were washed with H7 buffer before use. The two valves were closed or opened by applying or releasing pressure with a 3-mL syringe connected to the valves via polytetrafluoroethylene tubing. All experiments were carried out at room temperature. One to two microliters of sample were injected to fill the main channel. The two valves were closed while the inlet and outlet channels were washed with H7 buffer. The top valve was opened, exposing the mucus interface. Twenty-five microliters of peptide solution were added to the reservoir of each inlet. The flow rate of the peptide solution into the inlet channel was determined by gravitational flow. […] At least two successful experimental replicates were obtained for each patient mucus sample, except for one sample of cervical mucus, for which only one measurement was obtained.
Images were analyzed using ImageJ (v1.47; Wayne Rasband, National Institutes of Health, Bethesda, MD, USA; http://imagej.nih.gov/ij) and MATLAB software.

average maximum concentration of peptide accumulated inside mucus (enrichment at mucus-buffer interface) (mucus from high-risk pregnant patients (n = 9), microfluidic channel, 4 μM FAM-labelled peptide in H7 buffer pH 7, room temperature, epifluorescence read-out)	average maximum concentration of peptide accumulated inside mucus (enrichment at mucus-buffer interface) (mucus from low-risk pregnant women (n = 15), microfluidic channel, 4 μM FAM-labelled peptide in H7 buffer pH 7, room temperature, epifluorescence read-out)	average maximum concentration of peptide accumulated inside mucus (enrichment at mucus-buffer interface) (mucus from ovulating non-pregnant women (n = 20), microfluidic channel, 4 μM FAM-labelled peptide in H7 buffer (20 mM HEPES, 20 mM NaCl, pH 7), room temperature, epifluorescence read-out)	SMILES	concentration of the peptide at the end of the channel (450 μm) (mucus from high-risk pregnant patients (n = 9), 4 μM FAM-labelled peptide in H7 buffer pH 7, room temperature, epifluorescence read-out)	retention (enrichment) of the peptide at the mucus barrier interface (mucus from high-risk pregnant patients (n = 9), microfluidic channel, 4 μM FAM-labelled peptide in H7 buffer pH 7, room temperature)	concentration of the peptide at the end of the channel (450 μm) (mucus from low-risk pregnant patients (n = 15), 4 μM FAM-labelled peptide in H7 buffer pH 7, room temperature, epifluorescence read-out)	peptide concentration gradient through the mucus layer compared with buffer (mucus from ovulating women (n = 20), microfluidic channel, 4 μM FAM-labelled peptide in H7 buffer pH 7, room temperature, epifluorescence read-out)
19.3 µM	36.9 µM	10.6 µM	C[C@H](NC(=O)c1ccc2c(c1)C1(OC2=O)c2ccc(O)cc2Oc2cc(O)ccc21)C(=O)N[C@@H](CCCCN)C(=O)N[C@@H](C)C(=O)N[C@@H](CCCCN)C(=O)N[C@@H](C)C(=O)N[C@@H](CCCCN)C(=O)N[C@@H](C)C(=O)N[C@@H](CCCCN)C(=O)N[C@@H](C)C(=O)N[C@@H](CCCCN)C(=O)N[C@@H](C)C(=O)N[C@@H](CCCCN)C(=O)N[C@@H](C)C(=O)N[C@@H](CCCCN)C(=O)N[C@@H](C)C(=O)N[C@@H](CCCCN)C(=O)N[C@@H](C)C(=O)N[C@@H](CCCCN)C(=O)N[C@@H](C)C(=O)N[C@@H](CCCCN)C(N)=O [(+) peptide] (6FAM-AKAKAKAKAKAKAKAKAKAK-NH2)				
			C[C@H](NC(=O)c1ccc2c(c1)C1(OC2=O)c2ccc(O)cc2Oc2cc(O)ccc21)C(=O)N[C@@H](CCC(=O)O)C(=O)N[C@@H](C)C(=O)N[C@@H](CCC(=O)O)C(=O)N[C@@H](C)C(=O)N[C@@H](CCC(=O)O)C(=O)N[C@@H](C)C(=O)N[C@@H](CCC(=O)O)C(=O)N[C@@H](C)C(=O)N[C@@H](CCC(=O)O)C(=O)N[C@@H](C)C(=O)N[C@@H](CCC(=O)O)C(=O)N[C@@H](C)C(=O)N[C@@H](CCC(=O)O)C(=O)N[C@@H](C)C(=O)N[C@@H](CCC(=O)O)C(=O)N[C@@H](C)C(=O)N[C@@H](CCC(=O)O)C(=O)N[C@@H](C)C(=O)N[C@@H](CCC(=O)O)C(N)=O [(−) peptide] (6FAM-AEAEAEAEAEAEAEAEAEAE-NH2)	1100 nM	not detected in any of the high-risk samples	500 nM	nearly identical with or without mucus present
